“And” between values parts separate entries of the source, which are not always exact repeats. Identical values can stand only once.
Key:
Experiment in all cases: Cell assay (liposome/EV binding, flow cytometry)
Assay type in all cases: cell-based
[1] = target: T1, Siglec-15 R143A CHO cells (Homo sapiens, UniProt Q6ZMC9, K274L/R143A); conditions: Sig-15 R143A; 3 mol% ganglioside liposomes; replicates
T1 construct: expressed in transfected cells
T1 sequence (Q6ZMC9 20-328 R143A/K274L): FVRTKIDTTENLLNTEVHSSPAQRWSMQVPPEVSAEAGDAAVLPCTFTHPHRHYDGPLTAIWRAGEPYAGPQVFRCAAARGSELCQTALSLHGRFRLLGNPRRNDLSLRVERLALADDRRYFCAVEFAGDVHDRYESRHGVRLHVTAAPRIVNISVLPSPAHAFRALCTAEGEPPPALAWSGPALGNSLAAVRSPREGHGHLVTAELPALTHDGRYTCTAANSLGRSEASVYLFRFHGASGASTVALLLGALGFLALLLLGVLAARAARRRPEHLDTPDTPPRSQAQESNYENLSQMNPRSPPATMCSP
Summary of the method: (§1)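 Extruded PEGylated DSPC/cholesterol liposomes (100 nm filter; 130 ± 35 nm) bearing Siglec ligand and AF647 lipids. Cells + 50 µM liposome or 50 µg/mL EV, DMEM F12/5% FBS, 37 °C, 30 min; washed; anti-Siglec 1:250, ice 30 min; flow, Siglec+ gate.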

[2] = target: T2, CD33 R119A CHO cells (Homo sapiens, UniProt P20138, R119A); conditions: 3 mol% ganglioside liposomes, replicates
T2 construct: expressed in transfected cells
Summary of the method: as §1

[3] = target: T3, CD22 R120A CHO cells (Homo sapiens, UniProt P20273, R120A); conditions: 3 mol% ganglioside liposomes, replicates
T3 construct: expressed in transfected cells
T3 sequence (P20273 20-847 R120A): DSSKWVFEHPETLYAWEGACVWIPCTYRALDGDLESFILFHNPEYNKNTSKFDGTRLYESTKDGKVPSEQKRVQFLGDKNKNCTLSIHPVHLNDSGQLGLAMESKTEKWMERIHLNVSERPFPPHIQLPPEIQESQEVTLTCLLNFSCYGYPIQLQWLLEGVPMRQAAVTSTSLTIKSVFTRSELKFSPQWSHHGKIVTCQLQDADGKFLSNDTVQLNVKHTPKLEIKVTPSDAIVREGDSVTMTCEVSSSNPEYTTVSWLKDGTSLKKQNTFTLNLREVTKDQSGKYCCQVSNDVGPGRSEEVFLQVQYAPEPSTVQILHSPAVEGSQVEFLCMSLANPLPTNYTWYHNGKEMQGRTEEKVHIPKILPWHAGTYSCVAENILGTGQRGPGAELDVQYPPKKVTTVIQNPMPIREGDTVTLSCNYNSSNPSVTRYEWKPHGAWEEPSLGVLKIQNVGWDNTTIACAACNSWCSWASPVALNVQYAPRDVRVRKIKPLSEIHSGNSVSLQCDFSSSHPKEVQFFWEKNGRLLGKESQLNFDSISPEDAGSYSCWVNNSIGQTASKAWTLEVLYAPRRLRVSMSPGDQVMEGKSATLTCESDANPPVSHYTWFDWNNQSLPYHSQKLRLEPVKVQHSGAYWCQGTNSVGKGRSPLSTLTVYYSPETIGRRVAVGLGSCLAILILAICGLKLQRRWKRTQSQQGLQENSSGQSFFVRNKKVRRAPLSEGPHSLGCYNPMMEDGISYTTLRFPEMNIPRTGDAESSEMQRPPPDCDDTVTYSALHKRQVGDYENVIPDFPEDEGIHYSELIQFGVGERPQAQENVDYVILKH
Summary of the method: as §1

[4] = target: T4, R122A Siglec-6 CHO cells (Homo sapiens, UniProt O43699, R122A); conditions: Sig-6 R122A; 3 mol% ganglioside liposomes; replicates
T4 construct: expressed in transfected cells
Summary of the method: (§2)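 Cells are incubated for 30 min at 37 °C with ligand-displaying liposomes (50 µM lipid) or EVs (50 µg/mL protein) in DMEM F12 containing 5% FBS. After washing and anti-Siglec staining on ice, liposome binding is quantified by flow cytometry within the Siglec-positive population.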

[5] = target: T5, Siglec-8 R125A CHO cells (Homo sapiens, UniProt Q9NYZ4, R125A); conditions: Sig-8 R125A; 3 mol% ganglioside liposomes; replicates
T5 construct: expressed in transfected cells
Summary of the method: as §2

T2 sequence (P20138 18-364 R119A): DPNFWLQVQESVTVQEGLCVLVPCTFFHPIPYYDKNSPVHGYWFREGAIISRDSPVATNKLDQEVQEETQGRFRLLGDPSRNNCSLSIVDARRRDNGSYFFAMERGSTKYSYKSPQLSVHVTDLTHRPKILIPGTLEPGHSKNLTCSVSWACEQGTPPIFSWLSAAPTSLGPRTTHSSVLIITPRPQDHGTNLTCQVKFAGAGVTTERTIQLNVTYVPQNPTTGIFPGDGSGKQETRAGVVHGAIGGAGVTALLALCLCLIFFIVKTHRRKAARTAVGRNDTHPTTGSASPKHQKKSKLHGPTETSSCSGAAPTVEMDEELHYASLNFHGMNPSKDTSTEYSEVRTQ
T5 sequence (Q9NYZ4 17-499 R125A): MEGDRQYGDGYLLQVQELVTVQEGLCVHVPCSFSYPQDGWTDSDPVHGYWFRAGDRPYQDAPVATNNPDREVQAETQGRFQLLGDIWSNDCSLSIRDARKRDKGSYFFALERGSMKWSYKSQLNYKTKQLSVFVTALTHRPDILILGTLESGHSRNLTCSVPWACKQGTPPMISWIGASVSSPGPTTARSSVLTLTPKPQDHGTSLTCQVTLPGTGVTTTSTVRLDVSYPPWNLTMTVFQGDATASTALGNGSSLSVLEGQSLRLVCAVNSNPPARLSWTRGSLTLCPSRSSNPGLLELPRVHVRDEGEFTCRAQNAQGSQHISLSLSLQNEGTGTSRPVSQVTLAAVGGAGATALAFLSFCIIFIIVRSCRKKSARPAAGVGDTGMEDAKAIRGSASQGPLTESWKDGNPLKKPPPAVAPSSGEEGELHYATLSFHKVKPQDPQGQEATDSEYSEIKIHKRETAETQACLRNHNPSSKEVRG
T4 sequence (O43699 27-453 R122A): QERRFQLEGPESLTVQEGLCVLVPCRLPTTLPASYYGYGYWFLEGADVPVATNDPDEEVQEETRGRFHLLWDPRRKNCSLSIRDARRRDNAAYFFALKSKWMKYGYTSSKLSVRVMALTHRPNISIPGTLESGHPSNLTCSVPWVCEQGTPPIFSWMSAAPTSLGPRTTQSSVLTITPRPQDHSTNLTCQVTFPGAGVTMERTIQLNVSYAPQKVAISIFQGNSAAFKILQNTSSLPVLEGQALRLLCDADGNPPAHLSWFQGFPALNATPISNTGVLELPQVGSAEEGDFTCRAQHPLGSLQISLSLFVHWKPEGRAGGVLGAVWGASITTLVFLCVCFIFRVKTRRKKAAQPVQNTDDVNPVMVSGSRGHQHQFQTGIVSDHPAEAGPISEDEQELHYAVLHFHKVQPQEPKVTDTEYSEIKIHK

Substance	log10(MFI AF647) of GLL relative to log10(MFI AF647) of the same GLL against UT CHO cells (Fig. 2a) [1]	log10(MFI AF647) of GLL relative to log10(MFI AF647) of the same GLL against UT CHO cells (Fig. 2a) [2]	log10(MFI AF647) of GLL relative to log10(MFI AF647) of the same GLL against UT CHO cells (Fig. 2a) [3]	log10(MFI AF647) of GLL relative to log10(MFI AF647) of the same GLL against UT CHO cells (Fig. 2a) [4]	log10(MFI AF647) of GLL relative to log10(MFI AF647) of the same GLL against UT CHO cells (Fig. 2a) [5]
GT1b	-0.03 and -0.06 and -0.05 (2×)	-0.06	0.05 and 0.04 (2×) and 0.06	0.72 and 0.7 and 0.61 and 0.69	-0.22 (2×) and -0.23 and -0.24
GD1b	-0.12 and -0.14 (3×)	-0.06 and -0.07 and -0.04 and -0.05	0.03 and 0.02 and -0.01 and 0.01	0.2 and 0.17 (2×) and 0.16	-0.14 and -0.15 and -0.17 and -0.19
GM1	-0.08 and -0.12 (2×) and -0.11	-0.15 and -0.13 and -0.21 (2×)	0.06 and 0.04 and -0.02 and 0.03	0.91 and 0.89 and 0.86 and 0.85	-0.02 and -0.06 and -0.08 and -0.03
GM2	-0.02 (2×) and -0.04 and -0.03	-0.01 and 0 and 0.03 (2×)	0.1 (2×) and 0.12 and 0.08	0.01	-0.12 and -0.14 and -0.17 (2×)
GD3	0.02 and -0.02 and 0 and -0.01	0 (2×) and 0.03 (2×)	0.09 and 0.1 (2×) and 0.11	0.78 (2×) and 0.7 and 0.79	-0.04 (2×) and -0.08 (2×)

From publication PMC10122656, “Siglec-6 mediates the uptake of extracellular vesicles through a noncanonical glycolipid binding pocket” (Nature Communications, 2023)
